From US20110251379A1, “COMPOUNDS USEFUL FOR TREATING NEURODEGENERATIVE DISORDERS” (Satori Pharmaceuticals, Inc., priority 2010, published 2011)
Read-outs that look alike come from different tables or passages of the source.

Tested on: amyloid-beta (1-42) peptide
Experiment: ELISA assay of amyloid-beta (1-42) in conditioned media of 2B7 cells
Assay type: cell-based
Settings: for IC50: Aβ-42, 2B7 cells, 5 hours, read-out: IC50 range; for inhibition at 10 µM: Aβ-42, 10 umol/L
Protocol: Compounds of the present invention, and extracts comprising said compounds, may be assayed as inhibitors of amyloid-beta (1-42) peptide in vitro or in vivo. Such assay methods are described in detail in U.S. Pat. No. 6,649,196, the entirety of which is hereby incorporated herein by reference.
In certain embodiments, provided compounds of the present invention, and extracts comprising said compounds, were assayed as inhibitors of amyloid-beta (1-42) peptide in vitro using an ELISA assay.
Capture Plate Prep: • 6E10 was diluted to 5.0 ug/mL in 100 mM NaHCO3 pH 8.2 (10 ug aliquot per 2 mL buffer); • 100 uL capture antibody solution was added to wells of 96 well plate; • Incubated overnight at 4° C. sealed; • Aspirated off capture antibody; and • Blocked with 250 uL of Blocking Buffer for 2-4 hours at rt sealed.
Conditioned Media: • Cultured 2B7 cells in 96 well plate with 250 uL of media per well until confluent; • Prepared serial dilution of compounds in DMSO at 100× the final desired concentration; • Washed wells with 2B7 cells lx with 250 uL of media; • Diluted DMSO stocks 1:100 into media and mix; and • Added 250 μL of media containing compounds (1% DMSO) to wells with 2B7 cells for 5 hours at 37° C.
Elisa Sample Prep: • Diluted conditioned media 1:2 into blocking buffer; • NOTE: If assaying for A-Beta 1-40 or total A-Beta, then diluted above sample 1:10 with a 50/50 mixture of non-conditioned media containing 1% DMSO and blocking buffer.
Standard Curve Sample Prep: • Diluted appropriate A-Beta peptide stock (stored in 1% NH4OH) to 200 μg/mL in blocking buffer; • Prepared a 1:2 serial dilution from the 200 μg/mL sample (150 μL into 150 μL blocking buffer); and • Added equal volume of standard curve samples to non-conditioned media with 1% DMSO.
Overnight Sample Incubation: • Aspirated blocking buffer from blocked plate; • Added 100 μL of samples to wells of plate (samples will be 50% media with 1% DMSO and 50% blocking buffer; and • Incubated overnight at 4° C. sealed.
Addition of Detection Antibody: • Aspirated off samples, wash 2× with 250 μL blocking buffer; and • Added 100 μL detection antibody labeled with HRP at 0.25 ug/mL in blocking buffer for 4 hours at room temperature sealed.
Final Wash and Readout: • Aspirated wells, wash 5× with 250 μL of PBS-T (2 minutes each wash at 30 RPM); • Added 100 μL TMB for 20 minutes; • Added 100 μL of 1M H3PO4; and • Read at 450 nm.
Coating Buffer (100 mM NaHCO3 pH 8.2)
PBS-T (PBS with 0.05% Tween-20)
Blocking Buffer (1% BSA in PBS-T)

[1] = Aβ-42, 100 umol/L, read-out: % Inhibition (range)

Structure (SMILES) | IC50 [µM] | IC50 (5 h) [µM] | also measured
CC(=O)N(Cc1cc(F)c(F)c(F)c1)CC1CC(C)C2C(O1)C(O)C1(C)C3CCC4C(C)(C)C(O)CCC45CC35CCC21C (stereo not drawn) | 1 to 10 | – | –
CC(=O)N(CC1CC(C)C2C(O1)C(O)C1(C)C3CCC4C(C)(C)C(O)CCC45CC35CCC21C)C(C)(C)C (stereo not drawn) | < 10 | – | –
C[C@@H]1C[C@H]([C@H](O)C(C)(C)O)OC2=C1[C@@]1(C)CC[C@@]34C[C@@]35CC[C@H](O[C@@H]3OC[C@@H](O)[C@H](O)[C@H]3O)C(C)(C)[C@@H]5CC[C@H]4[C@]1(C)[C@H]2O | – | 1 to 10 | –
CC1CC(C(O)C(C)(C)O)OC2C1C1(C)CCC34CC35CCC(OC3CN(C(=O)CN(C)C)CCO3)C(C)(C)C5CCC4C1(C)C2O (stereo not drawn) | 1 to 10 | – | –
CC(=O)N(Cc1cccnc1)CC1CC(C)C2C(O1)C(O)C1(C)C3CCC4C(C)(C)C(O)CCC45CC35CCC21C (stereo not drawn) | > 10 | – | –
CC1CC(C2OC(=O)OC2(C)C)OC2C1C1(C)CCC34CC35CCC(O)C(C)(C)C5CCC4C1(C)C2O (stereo not drawn) | > 10 | – | –
CC(=O)O[C@@H]([C@H]1C[C@@H](C)C2C(O1)[C@H](O)[C@@]1(C)[C@@H]3CC[C@H]4C(C)(C)[C@@H](OC(=O)c5ccccn5)CC[C@@]45C[C@@]35CC[C@]21C)C(C)(C)O (stereo partly drawn) | – | ≤ 1 | –
CC(=O)N(Cc1ccccc1)CC1CC(C)C2C(O1)C(O)C1(C)C3CCC4C(C)(C)C(OC(=O)c5cccnc5)CCC45CC35CCC21C (stereo not drawn) | 1 to 10 | – | –
CC(=O)O[C@@H]([C@H]1C[C@@H](C)[C@H]2[C@H](O1)[C@H](O)[C@@]1(C)[C@@H]3CC[C@H]4C(C)(C)[C@@H](OC(=O)Cc5ccccn5)CC[C@@]45C[C@@]35CC[C@]21C)C(C)(C)O | – | ≤ 1 | –
CC1CC(C(O)C(C)(C)O)OC2C1C1(C)CCC34CC35CCC(OC3CN(C6CCOCC6)CCO3)C(C)(C)C5CCC4C1(C)C2O (stereo not drawn) | – | – | % Inhibition (range) (Aβ-42, 20 umol/L): E (% inhibition of 25-75%)
CC(=O)O[C@@H]([C@H]1C[C@@H](C)C2C(O1)[C@H](OC(N)=O)[C@@]1(C)[C@@H]3CC[C@H]4C(C)(C)[C@@H](OC(N)=O)CC[C@@]45C[C@@]35CC[C@]21C)C(C)(C)O (stereo partly drawn) | – | – | inhibition at 20 µM (Aβ-42, 20 umol/L, read-out: % Inhibition (range)): < 25%
CC(=O)OC(C1CC(C)C2C(O1)C(O)C1(C)C3CCC4C(C)(CCC(O)C4(C)C)C3=CCC21C)C(C)(C)O (stereo not drawn) | ≤ 1 | – | –
CC(=O)O[C@@H]([C@H]1C[C@@H](C)C2C(O1)C(=O)[C@@]1(C)[C@@H]3CC[C@H]4C(C)(C)[C@@H](O)CC[C@@]45C[C@@]35CC[C@]21C)C(C)(C)O (stereo partly drawn) | – | 1 to 10 | –
CC1O[C@@H]([C@H]2C[C@@H](C)C3C(O2)[C@H](O)[C@@]2(C)[C@@H]4CC[C@H]5C(C)(C)[C@@H](O)CC[C@@]56C[C@@]46CC[C@]32C)C(C)(C)O1 (stereo partly drawn) | – | – | inhibition at 10 µM (read-out: % Inhibition (range)): < 25%
CC(=O)O[C@@H]([C@H]1C[C@@H](C)C2C(O1)[C@H](O)[C@@]1(C)[C@@H]3CC[C@H]4C(C)(C)[C@@H](OC5CN(CC(N)=O)CCO5)CC[C@@]45C[C@@]35CC[C@]21C)C(C)(C)O (stereo partly drawn) [drawing 942] | – | ≤ 1 | –
COCCN1CCOC(O[C@H]2CC[C@]34C[C@]35CC[C@]3(C)C6C(O[C@@H]([C@H](OC(C)=O)C(C)(C)O)C[C@H]6C)[C@H](O)[C@@]3(C)[C@@H]5CC[C@H]4C2(C)C)C1 (stereo partly drawn) | – | ≤ 1 | –
C=C(C)C(OC(C)=O)C1CC(C)C2C(O1)C(O)C1(C)C3CCC4C(C)(C)C(OC5CN(CC(=O)N(C)C)CCO5)CCC45CC35CCC21C (stereo not drawn) | 1 to 10 | – | –
CC(=O)N(Cc1cc(F)cc(F)c1)CC1CC(C)C2C(O1)C(O)C1(C)C3CCC4C(C)(C)C(OC(=O)Cc5cccnc5)CCC45CC35CCC21C (stereo not drawn) | > 10 | – | –
CC(=O)O[C@@H]([C@H]1C[C@@H](C)[C@H]2[C@H](O1)[C@H](O)[C@@]1(C)[C@@H]3CC[C@H]4C(C)(C)[C@@H](O[C@H]5CN(CCN(C)C)CCO5)CC[C@@]45C[C@@]35CC[C@]21C)C(C)(C)O | – | ≤ 1 | –

Structure (SMILES) | IC50 [µM] | IC50 (5 h) [µM] | also measured
CC1CC(CCC(=O)O)OC2C1C1(C)CCC34CC35CCC(OC3CN(C(=O)CC6CC6)CCO3)C(C)(C)C5CCC4C1(C)C2O (stereo not drawn) | 1 to 10 | – | –
CCC(=O)N(CC1CC(C)C2C(O1)C(O)C1(C)C3CCC4C(C)(C)C(O)CCC45CC35CCC21C)C(C)(C)C (stereo not drawn) | > 10 | – | –
CC(=O)N(C)C(C(=O)NCc1ccccc1)C1CC(C)C2C(O1)C(O)C1(C)C3CCC4C(C)(C)C(O)CCC45CC35CCC21C (stereo not drawn) | > 10 | – | –
CC(=O)O[C@@H]([C@H]1C[C@@H](C)C2C(O1)[C@H](O)[C@@]1(C)[C@@H]3CC[C@H]4C(C)(C)[C@H](N)CC[C@@]45C[C@@]35CC[C@]21C)C(C)(C)O (stereo partly drawn) | – | – | inhibition at 100 µM [1]: 25 to 75%
CC1CC(C(O)C(C)(C)O)OC2C1C1(C)CCC34CC35CCC(OC3CN(C(=O)C6CC6)CCO3)C(C)(C)C5CCC4C1(C)C2O (stereo not drawn) | – | – | % Inhibition (range) (Aβ-42, 20 umol/L): E (% inhibition of 25-75%)
CC(=O)OC(C)(C)[C@@H](O)[C@H]1C[C@@H](C)C2=C(O1)[C@H](O)[C@@]1(C)[C@@H]3CC[C@H]4C(C)(C)[C@@H](OC5OC[C@@H](O)[C@H](O)[C@H]5O)CC[C@@]45C[C@@]35CC[C@]21C (stereo partly drawn) | – | 1 to 10 | –
CCC(=O)OC(C1CC(C)C2C(O1)C(O)C1(C)C3CCC4C(C)(C)C(OC5CN(C6COC6)CCO5)CCC45CC35CCC21C)C(C)(C)O (stereo not drawn) [drawing 805] | ≤ 1 | – | –
CC(=O)O[C@H]1CC[C@]23C[C@]24CC[C@]2(C)C5C(C[C@@]2(C)[C@@H]4CC[C@H]3C1(C)C)OC(C(F)(F)F)=C[C@H]5C (stereo partly drawn) | – | – | inhibition at 10 µM (read-out: % Inhibition (range)): < 25%
CC1CC(C(=O)C(C)(C)O)OC2C1C1(C)CCC34CC35CCC(O)C(C)(C)C5CCC4C1(C)C2O (stereo not drawn) [drawing 864] | > 10 | – | –
CC(=O)O[C@@H]([C@H]1C[C@@H](C)C2C(O1)[C@H](O)[C@@]1(C)[C@@H]3CC[C@H]4C(C)(C)[C@H](O)CC[C@@]45C[C@@]35CC[C@]21C)C(C)(C)O (stereo partly drawn) [drawing 925] | – | ≤ 1 | –
CC1CC(CN(C)C(=O)C(C)(C)C)OC2C1C1(C)CCC34CC35CCC(OC(=O)c3cccnc3)C(C)(C)C5CCC4C1(C)C2O (stereo not drawn) | > 10 | – | –
CC1CC(C(O)C(C)(C)O)OC2C1C1(C)CCC34CC35CCC(OC3CN(C(=O)Cc6ccc(F)cc6)CCO3)C(C)(C)C5CCC4C1(C)C2O (stereo not drawn) | – | – | % Inhibition (range) (Aβ-42, 20 umol/L): E E (% inhibition of 25-75%); % Inhibition (range) (Aβ-42, 100 umol/L): E E (% inhibition of 25-75%)
CC(=O)O[C@@H]([C@H]1C[C@@H](C)[C@H]2[C@H](O1)C1(SCCS1)[C@@]1(C)C3CCC4C(C)(C)[C@@H](O)CC[C@]4(C)C3=CC[C@]21C)C(C)(C)O (stereo partly drawn) | – | 1 to 10 | –
CCC(=O)O[C@@H]([C@H]1C[C@@H](C)C2C(O1)C(N)[C@@]1(C)[C@@H]3CC[C@H]4C(C)(C)[C@@H](O)CC[C@@]45C[C@@]35CC[C@]21C)C(C)(C)O (stereo partly drawn) | – | – | inhibition at 100 µM [1]: 25 to 75%
CC(=O)N(CC1CC(C)C2C(O1)C(O)C1(C)C3CCC4C(C)(C)C(O)CCC45CC35CCC21C)C1CCC1 (stereo not drawn) | > 10 | – | –
CC1CC(CNCc2ccccc2)OC2C1C1(C)CCC34CC35CCC(O)C(C)(C)C5CCC4C1(C)C2O (stereo not drawn) | > 10 | – | –
CC(=O)O[C@@H]([C@H]1C[C@@H](C)[C@H]2[C@H](O1)[C@H](O)[C@@]1(C)[C@@H]3CC[C@H]4C(C)(C)[C@@H](O[C@@H](CN(C)C)OCCN(C)C)CC[C@@]45C[C@@]35CC[C@]21C)C(C)(C)O | – | 1 to 10 | –
CC(=O)O[C@@H]([C@H]1C[C@@H](C)C2C(O1)[C@H](O)[C@@]1(C)[C@@H]3CC[C@H]4C(C)(C)[C@@H](O)CC[C@@]45C[C@@]35CC[C@]21C)C(C)(C)O (stereo partly drawn) [drawing 897] | – | ≤ 1 | –
CC(=O)N(Cc1cc(F)cc(F)c1)CC1CC(C)C2C(O1)C(O)C1(C)C3CCC4C(C)(C)C(OC(=O)c5ccncc5)CCC45CC35CCC21C (stereo not drawn) | > 10 | – | –
